By solubility is commonly meant the concentration that dissolves in the medium under given conditions.

The values below come from patent publication US9408835B2, “Pharmaceutical composition for oral administration” (ASTELLAS PHARMA INC., priority 2013, dated 2016).

The target in series [1] is T1, Janus kinase 3 (Homo sapiens, UniProt P52333).
T1 sequence (P52333 1-1124): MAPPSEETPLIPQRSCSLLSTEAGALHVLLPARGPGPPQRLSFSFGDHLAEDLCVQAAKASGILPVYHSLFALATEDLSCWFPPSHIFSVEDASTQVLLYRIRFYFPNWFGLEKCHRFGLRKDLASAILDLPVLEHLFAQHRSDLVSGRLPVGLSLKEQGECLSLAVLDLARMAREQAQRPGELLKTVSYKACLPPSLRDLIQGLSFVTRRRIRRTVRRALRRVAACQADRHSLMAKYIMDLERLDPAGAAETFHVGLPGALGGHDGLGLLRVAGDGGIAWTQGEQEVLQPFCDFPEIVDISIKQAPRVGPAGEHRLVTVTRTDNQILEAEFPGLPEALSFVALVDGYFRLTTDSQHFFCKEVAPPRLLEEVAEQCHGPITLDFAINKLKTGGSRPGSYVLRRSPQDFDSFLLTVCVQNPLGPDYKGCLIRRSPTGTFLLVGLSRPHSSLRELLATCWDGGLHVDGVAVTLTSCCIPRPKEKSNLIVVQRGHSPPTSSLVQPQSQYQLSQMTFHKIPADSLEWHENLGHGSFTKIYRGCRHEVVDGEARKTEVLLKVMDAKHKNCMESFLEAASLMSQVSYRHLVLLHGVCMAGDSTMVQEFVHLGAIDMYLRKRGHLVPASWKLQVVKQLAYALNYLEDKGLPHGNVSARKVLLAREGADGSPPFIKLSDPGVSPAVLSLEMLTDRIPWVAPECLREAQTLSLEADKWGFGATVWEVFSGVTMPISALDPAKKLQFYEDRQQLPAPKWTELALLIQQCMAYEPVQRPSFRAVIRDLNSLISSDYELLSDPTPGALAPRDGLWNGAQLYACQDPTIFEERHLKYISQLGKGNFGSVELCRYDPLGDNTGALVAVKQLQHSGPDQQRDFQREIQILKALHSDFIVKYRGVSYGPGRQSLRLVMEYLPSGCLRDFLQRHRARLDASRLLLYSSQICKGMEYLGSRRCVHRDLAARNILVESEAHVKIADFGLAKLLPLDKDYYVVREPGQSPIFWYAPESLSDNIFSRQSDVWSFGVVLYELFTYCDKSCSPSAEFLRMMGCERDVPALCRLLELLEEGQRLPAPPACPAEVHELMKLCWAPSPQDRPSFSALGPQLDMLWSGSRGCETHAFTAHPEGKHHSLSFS
To be noted: reported in Patent literature 1; cited from earlier work.

Series [2] in a line: Solubility of compound A in dissolution test fluids and water. In kind it is physicochemical.

In brackets after ≈: the same amount, converted by molar mass. Where two headings read alike, the source gives them in different places.

Regarding `NC(=O)c1cnc2[nH]ccc2c1N[C@@H]1[C@@H]2CC3C[C@H]1C[C@@](O)(C3)C2` [compound A, 4-{[(1R,2s,3S,5s,7s)-5-hydroxy-2-adamantyl]amino}-1H-pyrrolo[2,3-b]pyridine-5-carboxamide], the JAK3 inhibitory activity result in series [1] is “superior”. Besides, the “difference in solubility between acidic and neutral pH range” value in series [2] (JP1 pH 1.2 vs pH 6.8) was “about 1,000 times”. Moreover, the solubility is ~8 µg/mL (≈ 0.0245 mM) in series [2] (Japanese Pharmacopoeia, aqueous buffer, 2nd fluid for dissolution test JP2 (pH 6.8), read-out: solubility at a neutral pH range); ~8600 µg/mL (≈ 26.3 mM) in series [2] (Japanese Pharmacopoeia, simulated gastric fluid, 1st fluid for dissolution test JP1 (pH 1.2), read-out: solubility at an acidic pH range); ~11 µg/mL (≈ 0.0337 mM) in series [2] (aqueous buffer, pH 6.8 phosphate buffer, USP, read-out: solubility at a neutral pH range); ~12500 µg/mL (≈ 38.3 mM) in series [2] (water, read-out: solubility in water).
